US11371055B2, “Herbicide resistance genes” (CORTEVA AGRISCIENCE LLC, priority 2005, dated 2022)

Columns and labels:
[1] = system: AAD-12 (v1) T1 tobacco plants; test: Cross tolerance of T1 tobacco to phenoxy and pyridyloxy auxin herbicides; type: in vivo, Nicotiana tabacum
Description: Two to four T0 individuals surviving high rates of 2,4-D and fluroxypyr were saved from each event and allowed to self fertilize in the greenhouse to give rise to T1 seed. The T1 seed was stratified, and sown into selection trays much like that of Arabidopsis (Example 7.4), followed by selective removal of untransformed nulls in this segregating population with 560 g ai/ha glufosinate (PAT gene selection). Survivors were transferred to individual 3-inch pots in the greenhouse. These lines provided high levels of resistance to 2,4-D in the T0 generation. Improved consistency of response is anticipated in T1 plants not having come directly from tissue culture. These plants were compared against wildtype KY160 tobacco. All plants were sprayed with a track sprayer set at 187 L/ha. The plants were sprayed from a range of 140-2240 g ac/ha 2,4-D dimethylamine salt (DMA), 70-1120 g ace/ha triclopyr or 35-560 g ae/ha fluroxypyr. All applications were formulated in water. Each treatment was replicated 2-4 times. Plants were evaluated at 3 and 14 days after treatment. Plants were assigned injury rating with respect to stunting, chlorosis, and necrosis. The T1 generation is segregating, so some variable response is expected due to difference in zygosity.

wildtype tobacco = test: Auxinic herbicide cross tolerance of stacked tobacco, wildtype; type: in vivo, Nicotiana tabacum; conditions: KY160 wildtype control
Method: (§1) Homozygous AAD-12 (v1) (pDAS1580) and AAD-1 (v3) (pDAB721) plants (see PCT/US2005/014737 for the latter) were both reciprocally crossed and F1 seed was collected. The F1 seed from two reciprocal crosses of each gene were stratified and treated 4 reps of each cross were treated under the same spray regimen as used for the other testing with one of the following treatments: 70, 140, 280 g ac/ha fluroxypyr (selective for the AAD-12 (v1) gene); 280, 560, 1120 g ae/ha R-dichloroprop (selective for the AAD-1 (v3) gene); or 560, 1120, 2240 g ae/ha 2,4-D DMA (to confirm 2,4-D tolerance). Homozygous T2 plants of each gene were also planted for use as controls. Plants were graded at 3 and 14 DAT.

[2] = system: AAD-12 x AAD-1 F1 cross tobacco; test: Auxinic herbicide cross tolerance of stacked tobacco, F1 cross; type: in vivo, Nicotiana tabacum; conditions: AAD-12 (v1) x AAD (v3) F1
Method: as §1

[3] = system: AAD-12 (v1) pDAB4101 corn events (4101(0)003.R.003.AF and 4101(0)005.R001.AF); test: Field tolerance of corn: visual injury and brace root injury, AAD-12 events; type: in vivo, Zea mays
Method: Seeds were planted with cone planter on 40-inch row spacing at Wayside and 30 inch spacing at Fowler. […] Herbicide treatments were 2,4-D (dimethylamine salt) at 1120, 2240 and 4480 g ae/ha, triclopyr at 840 g ae/ha, fluroxypyr at 280 g ae/ha and an untreated control. The AAD-12 (v1) events contained the AHAS gene as a selectable marker. The F2 corn events were segregating so the AAD-12 (v1) plants were treated with imazethapyr at 70 g ae/ha to remove the null plants. Herbicide treatments were applied when corn reached the V6 stage using compressed air backpack sprayer delivering 187 L/ha carrier volume at 130-200 kpa pressure. […]

[4] = system: wild-type tobacco line (KY160); test: Field tolerance of tobacco, wild-type line; type: in vivo, Nicotiana tabacum; conditions: for injury: 14 DAT; for Average % Injury across locations at 14 DAT: Wild type
Method: (§2) Field level tolerance trials were conducted on three AAD-12 (v1) lines (events pDAS1580-[1]-018.001, pDAS1580-[1]-004.001 and pDAS1580-[1]-020.016) and one wild-type line (KY160) at field stations in Indiana and Mississippi. Tobacco transplants were grown in the greenhouse by planting T1 seed in 72 well transplant flats (Hummert International) containing Metro 360 media according to growing conditions indicated above. The null plants were selectively removed by Liberty selection as previously described. The transplant plants were transported to the field stations and planted at either 14 or 24 inches apart using industrial vegetable planters. Drip irrigation at the Mississippi site and overhead irrigation at the Indiana site were used to keep plants growing vigorously.
(§3) The experimental design was a split plot design with 4 replications. The main plot was herbicide treatment and the sub-plot was tobacco line. The herbicide treatments were 2,4-D (dimethylamine salt) at 280, 560, 1120, 2240 and 4480 g ac/ha, triclopyr at 840 g ae/ha, fluroxypyr at 280 g ac/ha and an untreated control. Plots were one row by 25-30 ft. Herbicide treatments were applied 3-4 weeks after transplanting using compressed air backpack sprayer delivering 187 L/ha carrier volume at 130-200 kpa pressure. Visual rating of injury, growth inhibition, and epinasty were taken at 7, 14 and 21 days after treatment.

[5] = system: AAD-12 (v1) tobacco lines (pDAS1580-[1]-018.001, pDAS1580-[1]-004.001, pDAS1580-[1]-020.016); test: Field tolerance of tobacco, AAD-12 lines; type: in vivo, Nicotiana tabacum
Method: as §2, §3

[6] = 2× rate of triclopyr (840 g ae/ha), 14 DAT

## CNC.O=C(O)COc1ccc(Cl)cc1Cl [2,4-D DMA]
[1]; T1 1580(1)-004, 140 g ae/ha
  Average % Injury of Replicates 14 DAT: 0%
[1]; T1 1580(1)-004, 560 g ae/ha
  Average % Injury of Replicates 14 DAT: 0%
[1]; T1 1580(1)-004, 2240 g ae/ha
  Average % Injury of Replicates 14 DAT: 0%
[1]; T1 1580(1)-018, 140 g ae/ha
  Average % Injury of Replicates 14 DAT: 0%
[1]; T1 1580(1)-018, 560 g ae/ha
  Average % Injury of Replicates 14 DAT: 0%
[1]; T1 1580(1)-018, 2240 g ae/ha
  Average % Injury of Replicates 14 DAT: 0%

## O=C(O)COc1ccc(Cl)cc1Cl [2,4-D, 2,4-dichlorophenoxyacetic acid]
[1]; 4× field rate (2240 g ae/ha) for 2,4-D or below
  injury: No injury
Wildtype tobacco; 560 g ae/ha
  Average % injury 14 DAT: 63%
Wildtype tobacco; 1120 g ae/ha
  Average % injury 14 DAT: 80%
Wildtype tobacco; 2240 g ae/ha
  Average % injury 14 DAT: 90%
[2]; 560 g ae/ha
  Average % injury 14 DAT: 0%
[2]; 1120 g ae/ha
  Average % injury 14 DAT: 0%
[2]; 2240 g ae/ha
  Average % injury 14 DAT: 0%
[3]; 2,4-D at the 1, 2 and 4× rates, V6 stage, 14 DAT
  visual injury: 0%
[3]; 4480 g ae/ha of 2,4-D
  brace root injury: no brace root injury
[3]; AAD-12 4101(0)003.R.003.AF, 1120 g ae/ha
  % Visual Injury 14DAT: 0%
[3]; AAD-12 4101(0)003.R.003.AF, 2240 g ae/ha
  % Visual Injury 14DAT: 0%
[3]; AAD-12 4101(0)003.R.003.AF, 4480 g ae/ha
  % Visual Injury 14DAT: 0%
[3]; AAD-12 4101(0)005.001.AF, 1120 g ae/ha
  % Visual Injury 14DAT: 0%
[3]; AAD-12 4101(0)005.001.AF, 2240 g ae/ha
  % Visual Injury 14DAT: 1%
[3]; AAD-12 4101(0)005.001.AF, 4480 g ae/ha
  % Visual Injury 14DAT: 1%
[3]; AAD-12 event 4101(0)003.R.003.AF, 1120 g ae/ha
  Brace Root Injury Rating (0-10 scale) 28DAT: 0
[3]; AAD-12 event 4101(0)003.R.003.AF, 2240 g ae/ha
  Brace Root Injury Rating (0-10 scale) 28DAT: 0
[3]; AAD-12 event 4101(0)003.R.003.AF, 4480 g ae/ha
  Brace Root Injury Rating (0-10 scale) 28DAT: 0
[3]; AAD-12 event 4101(0)005.001.AF, 1120 g ae/ha
  Brace Root Injury Rating (0-10 scale) 28DAT: 0
[3]; AAD-12 event 4101(0)005.001.AF, 2240 g ae/ha
  Brace Root Injury Rating (0-10 scale) 28DAT: 0
[3]; AAD-12 event 4101(0)005.001.AF, 4480 g ae/ha
  Brace Root Injury Rating (0-10 scale) 28DAT: 0
[4]; 2,4-D at 560 g ae/ha (1× field application rate)
  injury: 63%
[4]; 280 GM AE/HA
  Average % Injury across locations at 14 DAT: 48%
[4]; 560 GM AE/HA
  Average % Injury across locations at 14 DAT: 63%
[4]; 1120 GM AE/HA
  Average % Injury across locations at 14 DAT: 78%
[4]; 2240 GM AE/HA
  Average % Injury across locations at 14 DAT: 87%
[4]; 4480 GM AE/HA
  Average % Injury across locations at 14 DAT: 92%
[5]; 2,4-D at the 2× rate, 14DAT
  average injury: 1%
[5]; 2,4-D at the 4× rate, 14DAT
  average injury: 4%
[5]; 2,4-D at the 8× rate, 14 DAT
  average injury: 4%
[5]; pDAS1580-[1]-004.001, 280 GM AE/HA
  Average % Injury across locations at 14 DAT: 0%
[5]; pDAS1580-[1]-004.001, 560 GM AE/HA
  Average % Injury across locations at 14 DAT: 0%
[5]; pDAS1580-[1]-004.001, 1120 GM AE/HA
  Average % Injury across locations at 14 DAT: 1%
[5]; pDAS1580-[1]-004.001, 2240 GM AE/HA
  Average % Injury across locations at 14 DAT: 4%
[5]; pDAS1580-[1]-004.001, 4480 GM AE/HA
  Average % Injury across locations at 14 DAT: 4%
[5]; pDAS1580-[1]-018.001, 280 GM AE/HA
  Average % Injury across locations at 14 DAT: 0%
[5]; pDAS1580-[1]-018.001, 560 GM AE/HA
  Average % Injury across locations at 14 DAT: 2%
[5]; pDAS1580-[1]-018.001, 1120 GM AE/HA
  Average % Injury across locations at 14 DAT: 2%
[5]; pDAS1580-[1]-018.001, 2240 GM AE/HA
  Average % Injury across locations at 14 DAT: 4%
[5]; pDAS1580-[1]-018.001, 4480 GM AE/HA
  Average % Injury across locations at 14 DAT: 4%
[5]; pDAS1580-[1]-020.016, 280 GM AE/HA
  Average % Injury across locations at 14 DAT: 0%
[5]; pDAS1580-[1]-020.016, 560 GM AE/HA
  Average % Injury across locations at 14 DAT: 0%
[5]; pDAS1580-[1]-020.016, 1120 GM AE/HA
  Average % Injury across locations at 14 DAT: 1%
[5]; pDAS1580-[1]-020.016, 2240 GM AE/HA
  Average % Injury across locations at 14 DAT: 4%
[5]; pDAS1580-[1]-020.016, 4480 GM AE/HA
  Average % Injury across locations at 14 DAT: 4%

## C[C@@H](Oc1ccc(Cl)cc1Cl)C(=O)O [(R)-dichlorprop, R-2,4-dichlorophenoxypropionic acid]
Wildtype tobacco; 280 g ae/ha
  Average % injury 14 DAT: 25%
Wildtype tobacco; 560 g ae/ha
  Average % injury 14 DAT: 60%
Wildtype tobacco; 1120 g ae/ha
  Average % injury 14 DAT: 80%
[2]; 280 g ae/ha
  Average % injury 14 DAT: 0%
[2]; 560 g ae/ha
  Average % injury 14 DAT: 0%
[2]; 1120 g ae/ha
  Average % injury 14 DAT: 0%

## O=C(O)COc1nc(Cl)c(Cl)cc1Cl [triclopyr]
[1]; 70-1120 g ae/ha triclopyr, in one event line
  injury: Some injury
[1]; T1 1580(1)-004, 70 g ae/ha
  Average % Injury of Replicates 14 DAT: 0%
[1]; T1 1580(1)-004, 280 g ae/ha
  Average % Injury of Replicates 14 DAT: 0%
[1]; T1 1580(1)-004, 1120 g ae/ha
  Average % Injury of Replicates 14 DAT: 0%
[1]; T1 1580(1)-018, 70 g ae/ha
  Average % Injury of Replicates 14 DAT: 5%
[1]; T1 1580(1)-018, 280 g ae/ha
  Average % Injury of Replicates 14 DAT: 5%
[1]; T1 1580(1)-018, 1120 g ae/ha
  Average % Injury of Replicates 14 DAT: 8%
[3]; [6]
  visual injury, average across the two events: 3%
[3]; AAD-12 4101(0)003.R.003.AF, 840 g ae/ha
  % Visual Injury 14DAT: 3%
[3]; AAD-12 4101(0)005.001.AF, 840 g ae/ha
  % Visual Injury 14DAT: 4%
[3]; AAD-12 event 4101(0)003.R.003.AF, 840 g ae/ha
  Brace Root Injury Rating (0-10 scale) 28DAT: 0
[3]; AAD-12 event 4101(0)005.001.AF, 840 g ae/ha
  Brace Root Injury Rating (0-10 scale) 28DAT: 0
[3]; Triclopyr at 840 g ae/ha
  brace root injury: no brace root injury
[4]; 2× rate of triclopyr (840 g ae/ha)
  injury: 53%
[4]; 840 GM AE/HA
  Average % Injury across locations at 14 DAT: 53%
[5]; [6]
  average injury across the three lines: 5%
[5]; pDAS1580-[1]-004.001, 840 GM AE/HA
  Average % Injury across locations at 14 DAT: 5%
[5]; pDAS1580-[1]-018.001, 840 GM AE/HA
  Average % Injury across locations at 14 DAT: 4%
[5]; pDAS1580-[1]-020.016, 840 GM AE/HA
  Average % Injury across locations at 14 DAT: 5%
